Test results taken from PMC12042413 (Cell chemical biology, 2025).

Legend:
CDK9 = CDK9 (Homo sapiens, UniProt P50750); assay: competition rescue of CDK9 degradation in MOLT-4 cells; type: cell-based
CDK9/Cyclin T1 = CDK9/Cyclin T1 (Homo sapiens, UniProt P50750); assay: biochemical kinase IC50
Sequence of CDK9/Cyclin T1 (P50750 whole entry): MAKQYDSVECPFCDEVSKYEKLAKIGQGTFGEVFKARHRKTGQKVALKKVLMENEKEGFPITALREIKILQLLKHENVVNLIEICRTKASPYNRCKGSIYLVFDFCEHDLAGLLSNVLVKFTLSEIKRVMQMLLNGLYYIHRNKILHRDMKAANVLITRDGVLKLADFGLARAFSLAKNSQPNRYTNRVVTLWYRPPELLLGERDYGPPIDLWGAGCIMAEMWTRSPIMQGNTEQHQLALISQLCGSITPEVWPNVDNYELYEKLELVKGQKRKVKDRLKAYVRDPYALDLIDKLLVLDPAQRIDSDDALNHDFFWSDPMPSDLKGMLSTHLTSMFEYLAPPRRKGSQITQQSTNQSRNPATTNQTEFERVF
Sequence of CDK9/Cyclin T1 (O60563 whole entry partner): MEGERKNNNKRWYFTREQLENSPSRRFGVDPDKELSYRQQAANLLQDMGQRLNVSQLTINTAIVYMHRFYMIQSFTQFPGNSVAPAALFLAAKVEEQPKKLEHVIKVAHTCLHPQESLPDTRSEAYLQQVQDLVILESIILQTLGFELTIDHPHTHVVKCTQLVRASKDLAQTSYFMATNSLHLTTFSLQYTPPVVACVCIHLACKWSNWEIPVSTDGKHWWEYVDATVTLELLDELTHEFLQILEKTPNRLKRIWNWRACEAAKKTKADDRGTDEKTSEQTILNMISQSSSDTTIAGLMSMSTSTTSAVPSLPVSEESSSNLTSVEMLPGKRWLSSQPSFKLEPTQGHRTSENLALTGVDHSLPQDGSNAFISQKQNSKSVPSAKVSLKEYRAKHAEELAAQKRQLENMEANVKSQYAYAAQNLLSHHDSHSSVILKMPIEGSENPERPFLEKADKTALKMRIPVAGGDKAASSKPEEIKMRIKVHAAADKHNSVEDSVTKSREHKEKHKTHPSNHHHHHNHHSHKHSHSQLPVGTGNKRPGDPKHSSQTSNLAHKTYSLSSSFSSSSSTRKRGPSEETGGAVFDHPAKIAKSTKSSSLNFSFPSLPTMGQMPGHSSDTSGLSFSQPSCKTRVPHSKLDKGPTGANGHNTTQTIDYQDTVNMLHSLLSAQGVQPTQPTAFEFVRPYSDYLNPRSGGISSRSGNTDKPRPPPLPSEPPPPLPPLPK

Sequence of CDK9 (P50750 whole entry): as the sequence (P50750 whole entry) above

Row | IC50 (CDK9/Cyclin T1) | SMILES | competition rescue of CDK9 degradation in MOLT-4 cells (Western blot, 5 uM) (CDK9)
1 | – | CCCc1cc(N[C@@H]2CC[C@@H](NC(=O)c3ccc(CN4CCN(c5ccc6c(c5)CN(C5CCC(=O)N(C)C5=O)C6=O)CC4)cc3)C2)n2nccc2n1 (stereo partly drawn) [KI-CDK9d-32N, 4-((4-(2-(1-methyl-2,6-dioxopiperidin-3-yl)-1-oxoisoindolin-5-yl)piperazin-1-yl)methyl)-N-((1R,3R)-3-((5-propylpyrazolo[1,5-a]pyrimidin-7-yl)amino)cyclopentyl)benzamide] | rescued through co-treatments with excess KB-0742, pomalidomide, or KI-CDK9d-32N, a negative control PROTAC with impaired CRBN binding
2 | 3 nM | CCCc1cc(N[C@@H]2CC[C@@H](NC(=O)c3ccc(CN4CCN(c5ccc6c(c5)CN(C5CCC(=O)NC5=O)C6=O)CC4)cc3)C2)n2nccc2n1 (stereo partly drawn) [KI-CDK9d-32, 4-((4-(2-(2,6-dioxopiperidin-3-yl)-1-oxoisoindolin-5-yl)piperazin-1-yl)methyl)-N-((1R,3R)-3-((5-propylpyrazolo[1,5-a]pyrimidin-7-yl)amino)cyclopentyl)benzamide] | –
